Source: article PMC4126670 (ChemMedChem, 2014)
≈ marks a conversion by molar mass, not a printed value. Entries after “also recorded” stand apart in the source; their conditions may differ. Like-named read-outs stand apart in the source and are kept apart here.

Columns and labels:
M. tuberculosis [1] = assay: Antibacterial growth assay; assay type: cell-based, Mycobacterium tuberculosis
M. tuberculosis [2] = settings: cited from earlier work
M. tuberculosis Erdman [3] = settings: mice, bacterial load in lung or spleen; cited from earlier work
wild-type InhA [4] = target: T1, wild-type InhA (Mycobacterium tuberculosis, UniProt P9WGR1); settings: cited from earlier work
T1 sequence (P9WGR1 whole entry, looked up): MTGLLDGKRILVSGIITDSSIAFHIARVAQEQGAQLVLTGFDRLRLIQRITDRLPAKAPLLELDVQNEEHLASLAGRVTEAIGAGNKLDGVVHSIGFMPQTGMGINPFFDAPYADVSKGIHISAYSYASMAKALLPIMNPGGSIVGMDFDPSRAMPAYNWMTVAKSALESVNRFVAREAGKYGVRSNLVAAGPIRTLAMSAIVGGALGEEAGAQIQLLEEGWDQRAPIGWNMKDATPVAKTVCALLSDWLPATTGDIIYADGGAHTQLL

wild-type InhA [5] = target: T1, wild-type InhA; assay: InhA enzyme inhibition, steady state kinetics; assay type: biochemical
M. tuberculosis Erdman [6] = assay: Rapid M. tuberculosis animal model of efficacy; assay type: in vivo, Mycobacterium tuberculosis; settings: for reduction of bacterial counts in the spleen: GKO C57BL/6 mice, IP, 10 days of treatment, compared to untreated controls; for efficacy in rapid murine model of TB infection: mice, IP delivery, bacterial CFUs in spleen
wild-type InhA [7] = target: T1, wild-type InhA; assay: InhA progress curve assays; assay type: biochemical; settings: for Slow-onset: Yes/No
[8] = Table 1, lowest concentration inhibiting visible growth
[9] = Table 1, slow-onset (time-dependent) inhibition of InhA

Row | SMILES | Slow-onset (wild-type InhA [7]; [9]) | MIC (M. tuberculosis [1]; Mycobacterium tuberculosis) | IC50 (wild-type InhA [5]) | also measured
1 | CCCCCCc1ccc(Oc2ccccc2)c(O)c1 [PT004] |  |  |  | MIC (M. tuberculosis [1]; [8]): 2.1 mg/L (≈ 7.77 µM); MIC (M. tuberculosis [1]; Table 2): 2.1 ± 0.9 mg/L (≈ 7.77 µM); bacterial load in rapid macrophage model of TB infection (M. tuberculosis [2]): had efficacy in a macrophage TB assay; also recorded: reduced the bacterial load; efficacy in rapid murine model of TB infection (M. tuberculosis Erdman [3]): failed to observe a significant reduction in bacterial load; also recorded: did not show efficacy; also recorded: did not significantly reduce the bacterial load; also recorded: does not demonstrate efficacy; also recorded: lack of efficacy
2 | CCCCCCc1ccc(Oc2ccccc2[N+](=O)[O-])c(O)c1 [PT010] |  |  |  | MIC (M. tuberculosis [1]; [8]): 12.50 mg/L (≈ 39.6 µM)
3 | CCCCCCc1ccc(Oc2ccccc2N)c(O)c1 [PT013] |  |  |  | MIC (M. tuberculosis [1]; [8]): 3.13 mg/L (≈ 11 µM)
4 | CCCCCCc1ccc(Oc2ccccc2C)c(O)c1 [PT070] | slow onset and Yes |  |  | residence time on InhA (wild-type InhA [4]): 24 min; IC50 (wild-type InhA [5]; Table 1, enzyme concentration 100 nM): 50.7 ± 4 nM; MIC (M. tuberculosis [1]; [8]): 3.125 mg/L (≈ 11 µM); MIC (M. tuberculosis [1]; Table 2): 3.125 mg/L (≈ 11 µM); reduction of bacterial counts in the spleen (M. tuberculosis Erdman [6]): 0.57 ± 0.26 log10; efficacy in rapid murine model of TB infection (M. tuberculosis Erdman [6]): demonstrated efficacy; Ki (wild-type InhA [7]; Table 1): 0.044 ± 0.005 nM; residence time (wild-type InhA [7]; Table 1): 24 ± 2 min
5 | CCCCCCc1ccc(Oc2ccccn2)c(O)c1 [PT077] |  |  |  | MIC (M. tuberculosis [1]; Table 3): 3.13 mg/L (≈ 11.5 µM)
6 | CCCCCCc1ccc(Oc2ccccc2Cl)c(O)c1 [PT091, 2-(2-Chlorophenoxy)-5-hexylphenol] | slow onset and Yes | 1.56 mg/L (≈ 5.12 µM) |  | reduction of bacterial counts in the spleen (M. tuberculosis Erdman [6]): 0.69 ± 0.22 log10; efficacy in rapid murine model of TB infection (M. tuberculosis Erdman [6]): demonstrated efficacy; residence time (wild-type InhA [7]): 21 ± 3 min
7 | CCCCCCc1ccc(Oc2ccccc2Br)c(O)c1 [PT092, 2-(2-Bromophenoxy)-5-hexylphenol] | Yes | 3.12 mg/L (≈ 8.95 µM) |  | residence time (wild-type InhA [7]): 30 ± 3 min
8 | CCCCCCc1ccc(Oc2ccccc2C(F)(F)F)c(O)c1 [PT095, 5-Hexyl-2-(2-(trifluoromethyl)phenoxy)phenol] | No | 50 mg/L (≈ 148 µM) | 29.7 ± 1.2 nM | 
9 | CCCCCCc1ccc(Oc2ccccc2I)c(O)c1 [PT096, 5-Hexyl-2-(2-iodophenoxy)phenol] | No | 25 mg/L (≈ 63.1 µM) | 44.6 ± 7.5 nM | Ki (wild-type InhA [7]): 3.72 ± 5.13 nM
10 | CCCCCCc1ccc(Oc2ccc([N+](=O)[O-])cc2C)c(O)c1 [PT107, 5-Hexyl-2-(2-methyl-4-nitrophenoxy)phenol] |  | 6.25 mg/L (≈ 19 µM) | 50 ± 5 nM | Ki (wild-type InhA [7]): 0.13 ± 0.03 nM
11 | CCCCCCc1ccc(Oc2c(C)cccc2C)c(O)c1 [PT108, 2-(2,6-Dimethylphenoxy)-5-hexylphenol] |  | 100 mg/L (≈ 335 µM) | 1570 ± 200 nM | 
12 | CCCCCCc1ccc(Oc2c(Cl)cccc2Cl)c(O)c1 [PT109, 2-(2,6-Dichlorophenoxy)-5-hexylphenol] |  | 25 mg/L (≈ 73.7 µM) | 86 ± 6 nM | 
13 | CCCCCCc1ccc(Oc2c(C)cccc2N)c(O)c1 [PT110, 2-(2-Amino-6-methylphenoxy)-5-hexylphenol] |  | > 100 mg/L |  | MIC (M. tuberculosis [1]; Table 2): total loss
14 | CCCCCCc1ccc(Oc2c(F)cccc2C#N)c(O)c1 [PT111, 3-Fluoro-2-(4-hexyl-2-hydroxyphenoxy) benzonitrile] |  | 25 mg/L (≈ 79.8 µM) | 100 ± 9 nM | 
15 | CCCCCCc1ccc(Oc2cnccc2N)c(O)c1 [PT112, 2-((4-Aminopyridin-3-yl)oxy)-5-hexylphenol] |  | 50 mg/L (≈ 175 µM) | 69000 ± 700 nM | fold increase in IC50 value, amino group compared to fluorine group (wild-type InhA [5]; PT013 vs. PT113, PT112 vs. PT161): 1700 fold; fold difference in IC50 value between PT134 and PT112 (wild-type InhA [5]; PT134 (2'- and 4'-N) vs 4'-N analogue PT112): 300 fold
16 | CCCCCCc1ccc(Oc2ccccc2F)c(O)c1 [PT113, 2-(2-Fluorophenoxy)-5-hexylphenol] | Yes | 1.56 mg/L (≈ 5.41 µM) | 12.1 ± 4.8 nM | Ki (wild-type InhA [7]): 0.09 ± 0.02 nM; residence time (wild-type InhA [7]): 9 ± 3 min
17 | CCCCCCc1ccc(Oc2ccccc2O)c(O)c1 [PT114, 5-Hexyl-2-(2-hydroxyphenoxy)phenol] | No | 12.5 mg/L (≈ 43.6 µM) | 48 ± 3 nM | Ki (wild-type InhA [7]): 15.9 ± 3.7 nM
18 | CCCCCCc1ccc(Oc2cnccc2C#N)c(O)c1 [PT115, 3-(4-Hexyl-2-hydroxyphenoxy)isonicotinonitrile] |  | 12.5 mg/L (≈ 42.2 µM) | 891 ± 106 nM | residence time (wild-type InhA [7]): > 20 min; Slow-onset (wild-type InhA [7]; Table 3): Yes
19 | CCCCCCc1ccc(Oc2cnccc2C(=O)O)c(O)c1 [PT116, 3-(4-Hexyl-2-hydroxyphenoxy)isonicotinic acid] |  | 25 mg/L (≈ 79.3 µM) | > 12000 nM | 
20 | CCCCCCc1ccc(Oc2ccccc2C#N)c(O)c1 [PT119, 2-(4-Hexyl-2-hydroxyphenoxy)benzonitrile] | Yes | 2.5 mg/L (≈ 8.46 µM) |  | residence time (wild-type InhA [7]): 80 ± 12 min; fold reduction of binding affinity compared to PT070 (wild-type InhA [7]; ratio of Ki): ~ 50 fold
21 | CCCCCCc1ccc(Oc2c(F)cccc2Cl)c(O)c1 [PT133, 2-(2-Chloro-6-fluorophenoxy)-5-hexylphenol] |  | 25 mg/L (≈ 77.4 µM) | 79.7 ± 24.4 nM | 
22 | CCCCCCc1ccc(Oc2cncnc2N)c(O)c1 [PT134, 2-((4-Aminopyrimidin-5-yl)oxy)-5-hexylphenol] |  | 3.12 mg/L (≈ 10.9 µM) | 239 ± 46.8 nM | 
23 | CCCCCCc1ccc(Oc2cccnc2F)c(O)c1 [PT161, 2-((2-Fluoropyridin-3-yl)oxy)-5-hexylphenol] |  | 0.312 mg/L (≈ 1.08 µM) | 40 ± 20 nM | Slow-onset (wild-type InhA [7]; Table 3): slow-onset inhibition and Yes
24 | CCCCCCc1ccc(Oc2cccnc2C#N)c(O)c1 [PT164, 3-(4-Hexyl-2-hydroxyphenoxy)picolinonitrile] |  | < 0.39 mg/L | 308 ± 4.2 nM | Slow-onset (wild-type InhA [7]; Table 3): slow-onset inhibition and Yes
